Results as given in US6608082B1, “Treatment of erectile dysfunction using isoquinoline compound melanocortin receptor ligands” (Lion Bioscience AG, priority 1998, dated 2003).
Read-outs that look alike come from different tables or passages of the source.

Legend:
MCR-1 = biological target: T1, MCR-1 (Homo sapiens, UniProt Q01726); assay: Melanocortin receptor binding assay, competition with 125I-HP 467, HEK 293 cells expressing hMCR-1; settings: read-out: MC-1 IC50
T1 construct: expressed in transfected cells; host or cells: HEK 293
Method in brief: (§1)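 Test compounds compete on intact HEK 293 cells carrying hMCR-1 (2×10^4 per tube) or hMCR-4 (4×10^3 per tube), suspended in PBS, 10% calf serum, 1 mM CaCl2.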

MCR-4 = biological target: T2, MCR-4 (Homo sapiens, UniProt P32245); assay: Melanocortin receptor binding assay, competition with 125I-HP 467, HEK 293 cells expressing hMCR-4; settings: read-out: MC-4 IC50
T2 construct: expressed in transfected cells; host or cells: HEK 293
Method in brief: as §1

[1] = TRG 2408 and TRG 2409 libraries, inhibition of 125I-HP 467 binding
[2] = competition with 125I-HP 467, HEK 293 cells expressing MCR-1
[3] = competition with 125I-HP 467, HEK 293 cells expressing MCR-4

T2 sequence (P32245 whole entry): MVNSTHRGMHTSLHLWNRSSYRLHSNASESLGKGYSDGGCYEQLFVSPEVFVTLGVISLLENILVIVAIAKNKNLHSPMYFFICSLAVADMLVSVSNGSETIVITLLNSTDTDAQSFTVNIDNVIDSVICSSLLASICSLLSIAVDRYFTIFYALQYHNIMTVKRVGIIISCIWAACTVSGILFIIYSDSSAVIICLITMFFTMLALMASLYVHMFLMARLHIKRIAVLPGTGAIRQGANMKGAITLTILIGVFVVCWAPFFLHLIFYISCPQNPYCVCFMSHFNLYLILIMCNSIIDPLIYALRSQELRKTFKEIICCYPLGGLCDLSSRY
T1 sequence (Q01726 whole entry): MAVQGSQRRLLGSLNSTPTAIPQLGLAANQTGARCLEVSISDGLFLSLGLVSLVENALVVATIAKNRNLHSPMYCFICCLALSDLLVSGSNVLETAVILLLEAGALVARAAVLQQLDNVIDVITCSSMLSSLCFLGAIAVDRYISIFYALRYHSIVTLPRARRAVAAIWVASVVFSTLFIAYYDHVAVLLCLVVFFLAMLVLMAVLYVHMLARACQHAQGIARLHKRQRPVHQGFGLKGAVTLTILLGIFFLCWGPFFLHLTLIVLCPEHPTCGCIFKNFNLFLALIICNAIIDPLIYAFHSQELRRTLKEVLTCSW

Compound	IC50 (MCR-1; [1]) [µM]	IC50 (MCR-4; [1]) [µM]	IC50 (MCR-1; [2]) [µM]	IC50 (MCR-4; [3]) [µM]
CCNc1ccc(C2C(CNC3CCCCC3)c3ccccc3CN2CCCCC(N)CN)cc1 (stereo not drawn) [TRG 2408-5]	1.66	31.8	–	–
CCNc1ccc(C2C(CNC3CCCCC3)c3ccccc3CN2CCCC[C@@H](CN)NCCc2ccccc2)cc1 (stereo partly drawn) [TRG 2408-6]	0.61	7.16	–	–
CCNc1ccc(C2C(CNC3CCCCC3)c3ccccc3CN2CCCCC(CN)NCCNC)cc1 (stereo not drawn) [TRG 2408-8]	2.31	43.3	–	–
NCC(N)CCCCN1Cc2ccccc2C(CNC2CCCCC2)C1c1ccc(Cl)cc1Cl (stereo not drawn) [TRG 2408-13]	1.72	1.58	–	–
NCC(CCCCN1Cc2ccccc2C(CNC2CCCCC2)C1c1ccc(Cl)cc1Cl)NCCc1ccccc1 (stereo not drawn) [TRG 2408-14]	2.11	5.52	–	–
NCCNC(CN)CCCCN1Cc2ccccc2C(CNC2CCCCC2)C1c1ccc(Cl)cc1Cl (stereo not drawn) [TRG 2408-15]	0.76	6.3	–	–
CNCCNC(CN)CCCCN1Cc2ccccc2C(CNC2CCCCC2)C1c1ccc(Cl)cc1Cl (stereo not drawn) [TRG 2408-16]	1.79	6.11	–	–
NCC(N)CCCCN1Cc2ccccc2C(CNC2CCCCC2)C1c1ccc(-c2ccccc2)cc1 (stereo not drawn) [TRG 2408-21]	1.73	17.4	–	–
NCC(CCCCN1Cc2ccccc2C(CNC2CCCCC2)C1c1ccc(-c2ccccc2)cc1)NCCc1ccccc1 (stereo not drawn) [TRG 2408-22]	2.77	11.4	–	–
NCCNC(CN)CCCCN1Cc2ccccc2C(CNC2CCCCC2)C1c1ccc(-c2ccccc2)cc1 (stereo not drawn) [TRG 2408-23]	0.82	20.5	–	–
CCNc1ccc(C2C(CNC3CCCCC3)c3ccccc3CN2CCCCC(CN)NCCc2ccccc2)cc1 (stereo not drawn) [TRG 2408-32]	1.15	9.44	–	–
CCNc1ccc(C2C(CNC3CCCCC3)c3ccccc3CN2CCCCC(CN)NCCN)cc1 (stereo not drawn) [TRG 2408-33]	1.06	38.7	–	–
CCNc1ccc(C2C(CNC3CCCCC3)c3ccccc3CN2CCCCC(CN)NCCNC)cc1 (stereo not drawn) [TRG 2408-34]	2.14	33.6	–	–
CN[C@@H](CN)CCCCN1Cc2ccccc2C(CNC2CCCCC2)C1c1ccc(Cl)cc1Cl (stereo partly drawn) [TRG 2408-40]	2.43	8.28	–	–
NC[C@H](N)CCCCN1Cc2ccccc2C(CNC2CCCCC2)C1c1ccc(Cl)cc1Cl (stereo partly drawn) [TRG 2408-41]	1.03	3.88	–	–
NC[C@@H](CCCCN1Cc2ccccc2C(CNC2CCCCC2)C1c1ccc(Cl)cc1Cl)NCCc1ccccc1 (stereo partly drawn) [TRG 2408-42]	1.93	4.24	–	–
NCCNC(CN)CCCCN1Cc2ccccc2C(CNC2CCCCC2)C1c1ccc(Cl)cc1Cl (stereo not drawn) [TRG 2408-43]	1.63	7.49	–	–
CNCCNC(CN)CCCCN1Cc2ccccc2C(CNC2CCCCC2)C1c1ccc(Cl)cc1Cl (stereo not drawn) [TRG 2408-44]	1.27	5.06	–	–
CNC(CN)CCCCN1Cc2ccccc2C(CNC2CCCCC2)C1c1ccc(-c2ccccc2)cc1 (stereo not drawn) [TRG 2408-50]	1.55	13.3	–	–
NC[C@H](N)CCCCN1Cc2ccccc2C(CNC2CCCCC2)C1c1ccc(-c2ccccc2)cc1 (stereo partly drawn) [TRG 2408-51]	3.19	29.3	–	–
NCC(CCCCN1Cc2ccccc2C(CNC2CCCCC2)C1c1ccc(-c2ccccc2)cc1)NCCc1ccccc1 (stereo not drawn) [TRG 2408-52]	3.69	12.3	–	–

Compound	IC50 (MCR-1; [1]) [µM]	IC50 (MCR-4; [1]) [µM]	IC50 (MCR-1; [2]) [µM]	IC50 (MCR-4; [3]) [µM]
NCCNC(CN)CCCCN1Cc2ccccc2C(CNC2CCCCC2)C1c1ccc(-c2ccccc2)cc1 (stereo not drawn) [TRG 2408-53]	1	14.8	–	–
CNCCN[C@@H](CN)CCCCN1Cc2ccccc2C(CNC2CCCCC2)C1c1ccc(-c2ccccc2)cc1 (stereo partly drawn) [TRG 2408-54]	0.61	26.8	–	–
CCNc1ccc(C2C(CNC3CCCCC3)c3ccccc3CN2CCCC(CN)NC)cc1 (stereo not drawn) [TRG 2408-60]	0.69	20.7	–	–
CCNc1ccc(C2C(CNC3CCCCC3)c3ccccc3CN2CCCC(N)CN)cc1 (stereo not drawn) [TRG 2408-61]	0.69	35.2	–	–
CCNc1ccc(C2C(CNC3CCCCC3)c3ccccc3CN2CCCC(CN)NCCN)cc1 (stereo not drawn) [TRG 2408-63]	0.69	18.7	–	–
CCNc1ccc(C2C(CNC3CCCCC3)c3ccccc3CN2CCCC(CN)NCCNC)cc1 (stereo not drawn) [TRG 2408-64]	2.67	25	–	–
CNC(CN)CCCN1Cc2ccccc2C(CNC2CCCCC2)C1c1ccc(Cl)cc1Cl (stereo not drawn) [TRG 2408-70]	1.46	2.5	–	–
NCC(N)CCCN1Cc2ccccc2C(CNC2CCCCC2)C1c1ccc(Cl)cc1Cl (stereo not drawn) [TRG 2408-71]	1.19	3.03	–	–
NC[C@H](CCCN1Cc2ccccc2C(CNC2CCCCC2)C1c1ccc(Cl)cc1Cl)NCCc1ccccc1 (stereo partly drawn) [TRG 2408-72]	1.94	5.87	–	–
NCCNC(CN)CCCN1Cc2ccccc2C(CNC2CCCCC2)C1c1ccc(Cl)cc1Cl (stereo not drawn) [TRG 2408-73]	1.08	4.05	–	–
CNCCNC(CN)CCCN1Cc2ccccc2C(CNC2CCCCC2)C1c1ccc(Cl)cc1Cl (stereo not drawn) [TRG 2408-74]	1.56	4.28	–	–
CNC(CN)CCCN1Cc2ccccc2C(CNC2CCCCC2)C1c1ccc(-c2ccccc2)cc1 (stereo not drawn) [TRG 2408-80]	2.18	12.2	–	–
NCC(N)CCCN1Cc2ccccc2C(CNC2CCCCC2)C1c1ccc(-c2ccccc2)cc1 (stereo not drawn) [TRG 2408-81]	4.41	18	–	–
NCC(CCCN1Cc2ccccc2C(CNC2CCCCC2)C1c1ccc(-c2ccccc2)cc1)NCCc1ccccc1 (stereo not drawn) [TRG 2408-82]	10.2	16.4	–	–
NCCNC(CN)CCCN1Cc2ccccc2C(CNC2CCCCC2)C1c1ccc(-c2ccccc2)cc1 (stereo not drawn) [TRG 2408-83]	1.77	11.1	–	–
CNCCNC(CN)CCCN1Cc2ccccc2C(CNC2CCCCC2)C1c1ccc(-c2ccccc2)cc1 (stereo not drawn) [TRG 2408-84]	2.5	15.4	–	–
CCNc1ccc(C2C(CNCc3ccccc3OC)c3ccccc3CN2CCC(CN)NCCN)cc1 (stereo not drawn) [TRG 2408-89]	1.82	21.7	–	–
CCNc1ccc(C2C(CNC3CCCCC3)c3ccccc3CN2CC[C@@H](CN)NC)cc1 (stereo partly drawn) [TRG 2408-90]	5.9	25.2	–	–
CCNc1ccc(C2C(CNC3CCCCC3)c3ccccc3CN2CCC(N)CN)cc1 (stereo not drawn) [TRG 2408-91]	9.94	28.1	–	–
CCNc1ccc(C2C(CNC3CCCCC3)c3ccccc3CN2CCC(CN)NCCc2ccccc2)cc1 (stereo not drawn) [TRG 2408-92]	4.51	1.54	–	–
CCNc1ccc(C2C(CNC3CCCCC3)c3ccccc3CN2CCC(CN)NCCN)cc1 (stereo not drawn) [TRG 2408-93]	4.01	16.3	–	–

Compound	IC50 (MCR-1; [1]) [µM]	IC50 (MCR-4; [1]) [µM]	IC50 (MCR-1; [2]) [µM]	IC50 (MCR-4; [3]) [µM]
CCNc1ccc(C2C(CNC3CCCCC3)c3ccccc3CN2CCC(CN)NCCNC)cc1 (stereo not drawn) [TRG 2408-94]	3.89	27.1	–	–
CNC(CN)CCN1Cc2ccccc2C(CNC2CCCCC2)C1c1ccc(Cl)cc1Cl (stereo not drawn) [TRG 2408-100]	6.98	6.1	–	–
NCC(N)CCN1Cc2ccccc2C(CNC2CCCCC2)C1c1ccc(Cl)cc1Cl (stereo not drawn) [TRG 2408-101]	7.89	5.68	–	–
NCCNC(CN)CCN1Cc2ccccc2C(CNC2CCCCC2)C1c1ccc(Cl)cc1Cl (stereo not drawn) [TRG 2408-103]	5.41	8.8	–	–
CNCCNC(CN)CCN1Cc2ccccc2C(CNC2CCCCC2)C1c1ccc(Cl)cc1Cl (stereo not drawn) [TRG 2408-104]	5.65	9.06	–	–
CNC(CN)CCN1Cc2ccccc2C(CNC2CCCCC2)C1c1ccc(-c2ccccc2)cc1 (stereo not drawn) [TRG 2408-110]	5.37	9.01	–	–
NCC(CCN1Cc2ccccc2C(CNC2CCCCC2)C1c1ccc(-c2ccccc2)cc1)NCCc1ccccc1 (stereo not drawn) [TRG 2408-112]	8.79	10.4	–	–
NCCNC(CN)CCN1Cc2ccccc2C(CNC2CCCCC2)C1c1ccc(-c2ccccc2)cc1 (stereo not drawn) [TRG 2408-113]	3.78	12.7	–	–
CNC(CN)CCCCN1Cc2ccccc2C(CNC2CCCCC2)C1c1ccc(NCc2ccccc2)cc1 (stereo not drawn) [TRG 2409-13]	–	–	1.15	17.4
CNC(CN)CCCCN1Cc2ccccc2C(CNC2CCCCC2)C1c1ccc(NCC2CCCCC2)cc1 (stereo not drawn) [TRG 2409-15]	–	–	1.65	16.2
CNC(CN)CCCCN1Cc2ccccc2C(CNC2CCCCC2)C1c1ccc(NCC(C)C)cc1 (stereo not drawn) [TRG 2409-16]	–	–	0.95	21
CNC(CN)CCCCN1Cc2ccccc2C(CNC2CCCCC2)C1c1ccc(NCCOC)cc1 (stereo not drawn) [TRG 2409-17]	–	–	2.72	27.5
CNC(CN)CCCCN1Cc2ccccc2C(CNC2CCCCC2)C1c1ccc(NCc2ccc(OC)cc2)cc1 (stereo not drawn) [TRG 2409-18]	–	–	7.51	16.9
CNC(CN)CCCCN1Cc2ccccc2C(CNC2CCCCC2)C1c1ccc(NCCc2ccccc2)cc1 (stereo not drawn) [TRG 2409-19]	–	–	2.08	15.5
CCCNc1ccc(C2C(CNC3CCCCC3)c3ccccc3CN2CCCCC(CN)NC)cc1 (stereo not drawn) [TRG 2409-20]	–	–	0.88	19.8
CNC(CN)CCCCN1Cc2ccccc2C(CNC2CCCCC2)C1c1ccc(NCCc2ccc(OC)cc2)cc1 (stereo not drawn) [TRG 2409-21]	–	–	2.63	14.7
CNC(CN)CCCCN1Cc2ccccc2C(CNC2CCCCC2)C1c1ccc(NCCC2CC3CCC2C3)cc1 (stereo not drawn) [TRG 2409-22]	–	–	1.53	12.3
CNC(CN)CCCCN1Cc2ccccc2C(CNC2CCCCC2)C1c1ccc(NCCc2ccc(Cl)c(Cl)c2)cc1 (stereo not drawn) [TRG 2409-23]	–	–	4.77	19.6
CNC(CN)CCCCN1Cc2ccccc2C(CNC2CCCCC2)C1c1ccc(NCc2ccc(Cl)cc2)cc1 (stereo not drawn) [TRG 2409-24]	–	–	3.95	12.2
CCCCNc1ccc(C2C(CN)c3ccccc3CN2CCCC(CN)NCCc2ccccc2)cc1 (stereo not drawn) [TRG 2409-221]	–	–	0.08	0.85
CCCCNc1ccc(C2C(CN)c3ccccc3CN2CCCC(CN)NCCc2ccc(OC)cc2)cc1 (stereo not drawn) [TRG 2409-223]	–	–	0.1	0.63
